Reference: patent publication US20200063214A1, “METHODS OF IDENTIFYING PATIENTS LIKELY TO BENEFIT FROM TREATMENT WITH A TELOMERASE INHIBITOR” (Geron Corporation, priority 2018, published 2020)
Where “and” joins values, the source holds several entries; their conditions need not be identical. Identical values can stand only once. Entries after “also recorded” stand apart in the source; their conditions may differ.

Legend:
Type in all cases: in vivo, human
[1] = tested on: intermediate-2 or high-risk myelofibrosis (MF) relapsed/refractory to JAK inhibitor; experiment: Phase 2 study: spleen response (spleen volume reduction, SVR, by MRI at week 24); settings: for subjects with SVR >= 20% at week 24, No / subjects with SVR >= 20% at week 24, Yes / subjects with SVR >= 35% at wk 24 by IRC, No / subjects with SVR >= 35% at wk 24 by IRC, Yes / subjects with SVR >= 20% at Week 24 by IRC, No / subjects with SVR >= 20% at Week 24 by IRC, Yes / subjects with SVR >= 35% at Week 24 by IRC, Yes / subjects with SVR >= 35% at week 24 by IRC, No: 9.4 mg/kg
Excerpt: (§1) Diagnosis of primary, post-essential thrombocythemia, or post-polycythemia vera MF was required; other eligibility criteria included measurable splenomegaly (by magnetic resonance imaging [MRI]), active MF-related systemic symptoms and platelet count ≥75×10^9/L. Primary endpoints were: spleen response rate (% achieving ≥35% spleen volume reduction [SVR] by MRI at week 24); and symptom response rate (% achieving ≥50% reduction in total symptom score [TSS] per the Myelofibrosis Symptom Assessment Form (MFSAF) v2 at week 24). Key secondary endpoints included safety, overall survival (OS), treatment response, molecular response, and pharmacokinetic and pharmacodynamic relationships.

[2] = tested on: intermediate-2 or high-risk myelofibrosis (MF) relapsed/refractory to JAK inhibitor; experiment: Phase 2 study: symptom response (total symptom score, TSS, MFSAF v2 at week 24); settings: for subjects with TSS >= 50% decrease at week 24, No / subjects with TSS >= 50% decrease at week 24, Yes: 9.4 mg/kg
Excerpt: as §1

[3] = tested on: intermediate-2 or high-risk myelofibrosis (MF) relapsed/refractory to JAK inhibitor; experiment: Phase 2 study: overall survival (OS); settings: 9.4 mg/kg arm
Excerpt: as §1

[4] = HMR with 1 Mutation, 21 subjects
[5] = HMR with >1 Mutation, 14 subjects
[6] = all patients, first clinical cutoff

Substance: DNA, d(3′-amino-3′-deoxy-P-thio) (T-A-G-G-G-T-T-A-G-A-C-A-A), 5′-[O-[2-hydroxy-3-(hexadecanoylamino)propyl] phosphorothioate], sodium salt (1:13) [imetelstat sodium]
- spleen response rate (>=35% SVR by MRI at week 24) ([1]; 9.4 mg/kg IV every 3 weeks arm, all patients (n = 59)): 10.2%
- rate of response (SVR or TSS), LMR or HMR with only 1 mutation compared to HMR with more than 1 mutations ([1]; 9.4 mg/kg arm, week 24): higher rate of response
- rate of response (SVR or TSS), TN group compared to Non-TN group ([1]; 9.4 mg/kg arm, week 24): higher rate of response
- subjects with SVR >= 20% at week 24, No [1, 4]: 15 (71.4%)
- subjects with SVR >= 20% at week 24, Yes [1, 4]: 6 (28.6%)
- subjects with SVR >= 35% at wk 24 by IRC, No [1, 4]: 17 (81%)
- subjects with SVR >= 35% at wk 24 by IRC, Yes [1, 4]: 4 (19%)
- subjects with SVR >= 20% at week 24, No [1, 5]: 13 (92.9%)
- subjects with SVR >= 20% at week 24, Yes [1, 5]: 1 (7.1%)
- subjects with SVR >= 35% at wk 24 by IRC, Yes [1, 5]: 0 (0%)
- subjects with SVR >= 20% at week 24, No ([1]; LMR, No Mutation, 22 subjects): 17 (77.3%)
- subjects with SVR >= 20% at week 24, Yes ([1]; LMR, No Mutation, 22 subjects): 5 (22.7%)
- subjects with SVR >= 35% at wk 24 by IRC, No ([1]; LMR, No Mutation, 22 subjects): 20 (90.9%)
- subjects with SVR >= 35% at wk 24 by IRC, Yes ([1]; LMR, No Mutation, 22 subjects): 2 (9.1%)
- subjects with SVR >= 20% at Week 24 by IRC, No ([1]; Non-TN, 41 subjects): 34 (82.9%)
- subjects with SVR >= 20% at Week 24 by IRC, Yes ([1]; Non-TN, 41 subjects): 7 (17.1%)
- subjects with SVR >= 35% at Week 24 by IRC, Yes ([1]; Non-TN, 41 subjects): 3 (7.3%)
- subjects with SVR >= 35% at week 24 by IRC, No ([1]; Non-TN, 41 subjects): 38 (92.7%)
- subjects with SVR >= 20% at Week 24 by IRC, No ([1]; TN, 16 subjects): 11 (68.75)) %
- subjects with SVR >= 20% at Week 24 by IRC, Yes ([1]; TN, 16 subjects): 5 (31.25%)
- subjects with SVR >= 35% at Week 24 by IRC, Yes ([1]; TN, 16 subjects): 3 (18.75%)
- subjects with SVR >= 35% at week 24 by IRC, No ([1]; TN, 16 subjects): 13 (81.25%)
- spleen response rate, comparison by HMR mutation ([1]; patients with 1 HMR mutation (ASXL1, EZH2, SRSF2, or IDH1/2)): higher
- symptom response rate (TSS reduction >=50% at week 24) ([2]; 9.4 mg/kg arm, all patients (n = 59)): 32%
- subjects with TSS >= 50% decrease at week 24, No [2, 4]: 14 (66.7%)
- subjects with TSS >= 50% decrease at week 24, Yes [2, 4]: 7 (33.3%)
- subjects with TSS >= 50% decrease at week 24, No [2, 5]: 11 (78.6%)
- subjects with TSS >= 50% decrease at week 24, Yes [2, 5]: 3 (21.4%)
- subjects with TSS >= 50% decrease at week 24, No ([2]; LMR, No Mutation, 22 subjects): 14 (63.6%)
- subjects with TSS >= 50% decrease at week 24, Yes ([2]; LMR, No Mutation, 22 subjects): 8 (36.4%)
- subjects with TSS >= 50% decrease at week 24, No ([2]; Non-TN, 41 subjects): 31 (75.6%)
- subjects with TSS >= 50% decrease at week 24, Yes ([2]; Non-TN, 41 subjects): 10 (24.4%)
- subjects with TSS >= 50% decrease at week 24, No ([2]; TN, 16 subjects): 8 (50%)
- subjects with TSS >= 50% decrease at week 24, Yes ([2]; TN, 16 subjects): 8 (50%)
- Median survival, months (95% CI) ([3]; Non-TN subjects, first clinical cutoff): 23.6 months and 23.6 (20.7, NE) months
- OS HR (95% CI) ([3]; Non-TN vs TN, first clinical cutoff): 2.76 (0.81, 9.46)
- Death rate % ([3]; Non-TN, first clinical cutoff): 41.5%
- Median survival, months (95% CI) ([3]; TN subjects, first clinical cutoff): has not been reached; also recorded: not estimable; also recorded: NE (23.2, NE)
- Death rate % ([3]; TN, first clinical cutoff): 18.8%
- 18-month survival rate [3, 6]: 76.7%
- median OS [3, 6]: has not been reached
- median OS ([3]; all patients, second clinical cutoff): 29.9 months
- death rate, TN group compared to Non-TN group ([3]; first clinical cutoff): lower death rate
- death rate, TN group compared to Non-TN group ([3]; second clinical cutoff): lower death rate
